Laboratory results: EP3974434B1, “MACROLIDE DERIVATIVES, PREPARATION METHOD AND APPLICATION THEREOF” (Zhejiang Hisun Pharmaceutical Co., Ltd., priority 2019, dated 2020)
Like-named read-outs stand apart in the source and are kept apart here.

What was measured:
TRKC = molecular target: T1, TRKC (Homo sapiens, UniProt Q16288); assay: HTRF KinEASE-TK kinase activity inhibition assay, TRKC; format: biochemical; settings: ATP 50 µM
T1 construct: purchased Carna bioscience 08-197
Source text: (§1) The following method was used to determine the inhibition degrees of the compounds of the present invention on the activity of recombinant human NTRK family kinase in vitro. In this method, HTRF®KinEASE-TK tyrosine kinase kit (article number: 62TK0PEB) of Cisbio company was used, and the principle of the kit was based on time-resolved fluorescence resonance energy transfer (TF-FRET), and the inhibition of the compounds on the activity of the NTRK kinase was reflected by determining a phosphorylation degree of a biotinylated polypeptide substrate mediated by NTRK kinase. For detailed experimental operation, please refer to the kit instruction. Recombinant human wild-type NTRK proteins were purchased from Carna bioscience (the article numbers were TRKA #08-186, TRKB #08-187 and TRKC #08-197 respectively), and recombinant human mutant NTRK proteins were purchased from SignalChem (the article numbers were TRKA G595R #N16-12BG-10, TRKA G667C # N16-12CG-10, and TRKC G623R # N18-12CH-10 respectively).
(§2) The experimental methods were operated according to the steps in the kit instruction, and were briefly described as follows: a test compound was first dissolved in DMSO to prepare a storage solution, and then diluted in gradient with a buffer provided in the kit. A final concentration of the test compound in the reaction system ranged from 1,000 nM to 0.004 nM. An ATP Km value concentration of each NTRK protein was determined by using an ATP solution diluted in gradient (Sangon Biotech (Shanghai) Co., Ltd., A600311). According to the Km value obtained, the ATP concentrations in the reaction system were set as 100 µM for TRKA, 10 µM for TRKB, 50 µM for TRKC, 7 µM for TRKA(G595R), 1 µM for TRKA(G667C) and 100 µM for TRKC(G623R). The reaction was carried out in a 384-well microplate. Firstly, the compound and a certain amount of corresponding NTRK protein were added to the wells and incubated for 5 minutes to 10 minutes at room temperature. Then, the ATP solution and the biotinylated polypeptide substrate solution were added to the reaction solution and incubated with shaking at room temperature for 60 minutes. Then, an anti-phosphorylated tyrosine antibody coupled with a europium compound and streptavidin coupled with modified allophycocyanin XL665 were added to the reaction, and continuously incubated with shaking at room temperature for 1 hour. After incubation, fluorescence intensity values of each well at an excitation wavelength of 304 nm, and emission wavelengths of 620 nm and 665 nM were determined in a TF-FRET mode on a microplate reader. Compared with the fluorescence intensity ratio of a control group (0.1% DMSO), the percentage inhibition rates of the compound at each concentration were calculated, and the IC50 value of the compound was obtained by performing nonlinear regression analysis for logarithmic value of the compound concentration - inhibition rate by GraphPad Prism 5 software, which can be seen in Table 1. Table 1 IC50 data of the compounds of the present invention on TRK enzyme activity inhibition

TRKB = molecular target: T2, TRKB (Homo sapiens, UniProt Q16620); assay: HTRF KinEASE-TK kinase activity inhibition assay, TRKB; format: biochemical; settings: ATP 10 µM
T2 construct: purchased Carna bioscience 08-187
T2 sequence (Q16620 32-822): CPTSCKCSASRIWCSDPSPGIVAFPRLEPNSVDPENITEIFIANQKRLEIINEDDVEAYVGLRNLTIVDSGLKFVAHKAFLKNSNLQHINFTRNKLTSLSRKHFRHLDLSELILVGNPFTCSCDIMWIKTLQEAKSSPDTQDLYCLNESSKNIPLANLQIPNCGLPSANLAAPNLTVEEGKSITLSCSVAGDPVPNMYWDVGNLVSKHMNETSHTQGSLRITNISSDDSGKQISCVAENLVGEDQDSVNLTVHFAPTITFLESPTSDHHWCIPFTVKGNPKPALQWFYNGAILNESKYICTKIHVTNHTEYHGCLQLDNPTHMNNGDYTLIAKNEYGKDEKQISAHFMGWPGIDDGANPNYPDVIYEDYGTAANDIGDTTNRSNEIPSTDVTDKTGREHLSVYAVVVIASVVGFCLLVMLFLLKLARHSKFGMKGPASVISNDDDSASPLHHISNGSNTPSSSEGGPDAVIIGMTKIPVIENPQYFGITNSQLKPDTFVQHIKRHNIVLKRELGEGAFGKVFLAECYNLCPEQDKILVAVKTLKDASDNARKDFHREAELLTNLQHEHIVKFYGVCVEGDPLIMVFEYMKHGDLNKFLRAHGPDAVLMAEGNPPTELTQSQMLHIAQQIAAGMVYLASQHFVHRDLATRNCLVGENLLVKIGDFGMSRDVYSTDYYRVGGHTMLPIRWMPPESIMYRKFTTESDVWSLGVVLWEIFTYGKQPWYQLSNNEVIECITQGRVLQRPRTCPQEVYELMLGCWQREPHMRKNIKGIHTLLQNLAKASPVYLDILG
Source text: as §1, §2

TRKA = molecular target: T3, TRKA (Homo sapiens, UniProt P04629); assay: HTRF KinEASE-TK kinase activity inhibition assay, TRKA; format: biochemical; settings: ATP 100 µM
T3 construct: purchased Carna bioscience 08-186
T3 sequence (P04629 33-796): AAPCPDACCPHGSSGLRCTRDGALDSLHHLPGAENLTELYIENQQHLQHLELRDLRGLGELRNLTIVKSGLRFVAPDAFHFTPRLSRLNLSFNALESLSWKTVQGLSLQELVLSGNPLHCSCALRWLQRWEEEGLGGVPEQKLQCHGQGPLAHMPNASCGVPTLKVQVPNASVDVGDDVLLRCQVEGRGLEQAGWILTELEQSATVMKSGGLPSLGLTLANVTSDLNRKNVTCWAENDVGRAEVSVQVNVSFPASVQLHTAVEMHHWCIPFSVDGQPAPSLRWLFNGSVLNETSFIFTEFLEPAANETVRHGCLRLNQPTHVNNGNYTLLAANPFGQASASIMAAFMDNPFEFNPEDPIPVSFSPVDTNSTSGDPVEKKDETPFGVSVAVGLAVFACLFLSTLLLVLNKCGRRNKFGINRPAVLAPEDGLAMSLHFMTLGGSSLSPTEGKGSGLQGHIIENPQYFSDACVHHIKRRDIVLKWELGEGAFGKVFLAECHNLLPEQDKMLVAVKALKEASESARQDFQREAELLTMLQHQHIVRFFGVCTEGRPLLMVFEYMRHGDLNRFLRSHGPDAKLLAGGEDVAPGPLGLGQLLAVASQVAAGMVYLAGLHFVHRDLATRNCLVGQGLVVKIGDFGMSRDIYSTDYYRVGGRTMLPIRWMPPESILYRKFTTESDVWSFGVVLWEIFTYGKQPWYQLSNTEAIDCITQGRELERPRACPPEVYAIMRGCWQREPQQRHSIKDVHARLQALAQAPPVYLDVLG
Source text: as §1, §2

TRKA(G595R) = molecular target: T4, TRKA(G595R) (Homo sapiens, UniProt P04629, G595R); assay: HTRF KinEASE-TK kinase activity inhibition assay, TRKA(G595R); format: biochemical; settings: ATP 7 µM
T4 construct: purchased SignalChem N16-12BG-10
T4 sequence (P04629 33-796 G595R): as the sequence (P04629 33-796) above, with G563R counted along it
Source text: as §1, §2

[1] = Pharmacokinetic study on ICR mice (plasma, LC-MS/MS); format: in vivo; settings: male, mouse; for bioavailability: 5 mg/kg oral intake vs 1 mg/kg injection, read-out: Bioavailability F(%); for AUC(0-inf): read-out: Area under curve AUC0-∞; for Cmax: read-out: Blood concentration Cmax; for half-life: read-out: Half-life T1/2(h) (converted); for clearance: read-out: Clearance rate
Description: ICR mice, male, 29.0 g to 33.8g, purchased from Beijing Charles River Laboratory Animal Technology Co., Ltd.
Intravenous injection group: an appropriate amount of drug was weighed, and added with mixed solvent (DMA: 30% Solutol HS-15: Saline = 10: 10: 80 (v/v/v)) to prepare the drug with a final concentration of 0.2 mg/mL.
Oral gavage administration group: an appropriate amount of drug was weighed, added with an appropriate amount of sodium carboxymethyl cellulose (CMC-Na, containing 0.5% Tween 80), vortex shaked, and ultrasonically prepared into […] suspension.
For ICR mice, each compound to be tested was divided into an intravenous injection group (9 mice in each group) and an intragastric group (9 mice in each group). The ICR mice were fasted overnight and then administered by orbital intravenous injection (administration dose of 1 mg/kg, and administration volume of 5 mL/kg) and administered by intragastric injection (administration dose of 5 mg/kg, and administration volume of 10 mL/kg), and ate 4 hours after administration.
About 0.2 mL of blood was collected via jugular vein before administration and 0.083 hour, 0.25 hour, 0.5 hour, 1 hour, 2 hours, 4 hours, 8 hours, 12 hours and 24 hours after administration, and heparin sodium was used for anticoagulation. The collected blood samples were placed on ice, and plasma was separated by centrifugation (centrifugation condition: 1500 g, 10 minutes). The collected plasma was stored at-40°C to -20°C before analysis.
LC-MS/MS was used to determine the contents of different compounds to be tested in mouse plasma after intravenous injection and intragastric administration.
The pharmacokinetic parameters of the compounds of the present invention and the positive control can be seen in Table 8. Table 8 Results of pharmacokinetic parameters

TRKC(G623R) = molecular target: T5, TRKC(G623R) (Homo sapiens, UniProt Q16288, G623R); assay: HTRF KinEASE-TK kinase activity inhibition assay, TRKC(G623R); format: biochemical; settings: ATP 100 µM
T5 construct: purchased SignalChem N18-12CH-10
T5 sequence (Q16288 32-839 G623R): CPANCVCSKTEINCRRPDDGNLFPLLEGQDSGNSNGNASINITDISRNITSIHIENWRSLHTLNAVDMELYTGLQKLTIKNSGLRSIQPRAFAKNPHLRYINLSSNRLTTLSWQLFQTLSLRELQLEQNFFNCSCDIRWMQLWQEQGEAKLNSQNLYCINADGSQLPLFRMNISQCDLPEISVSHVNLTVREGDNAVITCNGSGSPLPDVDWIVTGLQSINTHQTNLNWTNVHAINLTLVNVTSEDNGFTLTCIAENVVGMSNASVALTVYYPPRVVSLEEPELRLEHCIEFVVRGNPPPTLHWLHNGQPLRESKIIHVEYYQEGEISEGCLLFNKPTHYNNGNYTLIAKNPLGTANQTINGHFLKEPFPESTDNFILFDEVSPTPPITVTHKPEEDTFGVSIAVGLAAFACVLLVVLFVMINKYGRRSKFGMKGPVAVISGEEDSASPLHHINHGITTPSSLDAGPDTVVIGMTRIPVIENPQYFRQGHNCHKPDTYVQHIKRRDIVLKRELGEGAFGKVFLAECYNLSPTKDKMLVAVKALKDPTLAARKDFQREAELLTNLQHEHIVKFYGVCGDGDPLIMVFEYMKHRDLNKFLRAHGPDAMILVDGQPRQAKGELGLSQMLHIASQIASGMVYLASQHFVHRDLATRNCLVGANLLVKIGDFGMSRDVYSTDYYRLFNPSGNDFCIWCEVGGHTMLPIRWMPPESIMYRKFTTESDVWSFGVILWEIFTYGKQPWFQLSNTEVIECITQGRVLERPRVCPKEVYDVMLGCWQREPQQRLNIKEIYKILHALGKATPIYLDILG
Source text: as §1
as §2, with “Then, an anti-phosphorylated tyrosine antibody coupled with a europium compound and streptavidin coupled with modified allophycocyanin XL665 were added to the reaction, and continuously incubated with shaking at room temperature for 1 hour.” left out, “Table 1 IC50 data of the compounds of the present invention on TRK enzyme activity inhibition” left out

TRKA(G667C) = molecular target: T6, TRKA(G667C) (Homo sapiens, UniProt P04629, G667C); assay: HTRF KinEASE-TK kinase activity inhibition assay, TRKA(G667C); format: biochemical; settings: ATP 1 µM
T6 construct: purchased SignalChem N16-12CG-10
T6 sequence (P04629 33-796 G667C): as the sequence (P04629 33-796) above, with G635C counted along it
Source text: as §1, §2

[2] = intravenous, 1 mg/kg, injection

T1 sequence (Q16288 32-839): as the sequence (Q16288 32-839 G623R) above, with R592G counted along it

| SMILES | IC50 (TRKC) | IC50 (TRKB) | IC50 (TRKA) | IC50 (TRKA(G595R)) | IC50 (TRKA(G667C)) | further results |
| --- | --- | --- | --- | --- | --- | --- |
| C[C@H]1Nc2ccn3ncc(c3n2)C(=O)NCC[C@H]2Cc3cc(F)cc1c3O2 [Example 3, (3R,11R)-6-fluoro-3-methyl-10-oxa-2,14,18,19,22-pentaazapentacyclo[14.5.2.1^8,11.0^4,9.0^19,23]tetracosa-1(22),4,6,8,16(23),17,20-heptaen-15-one] | 0.47 nM | 0.33 nM | 1.7 nM | 3.31 nM | – | – |
| C[C@H]1Nc2ccn3ncc(c3n2)C(=O)NC[C@]2(C)Cc3cc(F)c(F)c1c3O2 [Example 11, (3R,11S)-5,6-difluoro-3,11-dimethyl-10-oxa-2,13,1 7,18,21-pentaazapentacyclo[13.5.2.1^8,11.0^4,9.0^18,22]t ricosa-1(21),4,6,8,15(22),16,19-heptaen-14-one] | 0.63 nM | – | 4.5 nM | – | – | – |
| COC[C@@]12CNC(=O)c3cnn4ccc(nc34)N[C@H](C)c3cc(F)cc(c3O1)C2 [Example 15, (3R,11R)-6-fluoro-11-(methoxymethyl)-3-methyl-10-oxa-2,13,17,18,21-pentaazapentacyclo[13.5.2.1 ^8,11.0^4,9.0^18,22]tricosa-1(21),4,6,8,15(22),16,19-hept aen-14-one] | 0.37 nM | – | 2.8 nM | – | – | – |
| C[C@H]1Nc2ccn3ncc(c3n2)C(=O)NCC2(CF)Cc3cc(F)cc1c3O2 (stereo partly drawn) [Example 18, (3R)-6-fluoro-11-(fluoromethyl)-3-methyl-10-oxa-2,13,17,18,21-pentaazapentacyclo[13.5.2.1^8,11.0^4,9. 0^18,22]tricosa-1(21),4,6,8,15(22),16,19-heptaen-14-one] | 1.37 nM | 0.17 nM | 0.63 nM | 3.9 nM | 6.11 nM | – |
| C[C@H]1Nc2ccn3ncc(c3n2)C(=O)NCC2(CO)Cc3cc(F)cc1c3O2 (stereo partly drawn) [Example 19, (3R)-6-fluoro-11-(hydroxymethyl)-3-methyl-10-ox a-2,13,17,18,21-pentaazapentacyclo[13.5.2.1^8,11.0^4, 9.0^18,22]tricosa-1(21),4,6,8,15(22),16,19-heptaen-14-one] | 1.16 nM | 0.25 nM | 3.4 nM | 19.3 nM | – | – |
| C[C@H]1Nc2ccn3ncc(c3n2)C(=O)NCC[C@@]2(C)Cc3cc(F)cc1c3O2 [Example 20, (3R,11R)-6-fluoro-3,11-dimethyl-10-oxa-2,14,18,1 9,22-pentaazapentacyclo[14.5.2.1^8,11.0^4,9.0^19,23]tetra cosa-1(22),4,6,8,16(23),17,20-heptaen-15-one] | – | – | 5.9 nM | – | 4.2 nM | – |
| C[C@H]1Nc2ccc3ncc(n3n2)C(=O)NC[C@@]2(C)Cc3cc(F)cc1c3O2 [Example 26, (3R,11R)-6-fluoro-3,11-dimethyl-10-oxa-2,13,17,21,22-pentaazapentacyclo[13.5.2.1^8,11.0^4,9.0^18 ,22]tricosa-1(21),4,6,8,15,17,19-heptaen-14-one] | 0.8 nM | 1.3 nM | 0.97 nM | 8.6 nM | 15.5 nM | – |
| C[C@H]1CNC(=O)c2cnn3ccc(nc23)N[C@H](C)c2cc(F)ccc2O1 [repotrectinib, reference compound] | – | – | – | – | – | bioavailability [1]: 13%; AUC(0-inf) ([1]; 5 mg/kg, oral intake): 530 ng·h/mL; Cmax ([1]; 5 mg/kg, oral intake): 154 ng/mL; half-life ([1]; 5 mg/kg, oral intake): 2.93 h; AUC(0-inf) [1, 2]: 824 ng·h/mL; clearance [1, 2]: 20.2 mL/min/kg; half-life [1, 2]: 3.9 h |

More lines, main results first:

| IC50 (TRKC) | IC50 (TRKB) | IC50 (TRKA) | IC50 (TRKA(G595R)) | IC50 (TRKA(G667C)) | SMILES | further results |
| --- | --- | --- | --- | --- | --- | --- |
| 0.5 nM | 0.29 nM | 1.66 nM | 11.3 nM | – | C[C@H]1Nc2ccn3ncc(c3n2)C(=O)NCC2Cc3cc(F)cc1c3O2 (stereo partly drawn) [Example 1, (3R)-6-fluoro-3-methyl-10-oxa-2,13,17,18,21-pent aazapentacyclo[13.5.2.1^8,11.0^4,9.0^18,22]tricosa-1(21), 4,6,8, 15(22),16, 19-heptaen-14-one] | – |
| 2.63 nM | 0.76 nM | 0.92 nM | 4.31 nM | – | C[C@H]1Nc2ccn3ncc(c3n2)C(=O)NCC2(C)Cc3cc(F)cc1c3O2 (stereo partly drawn) [Example 5, (3R)-6-fluoro-3,11-dimethyl-10-oxa-2,13,17,18,21-pentaazapentacyclo[13.5.2.1^8,11.0^4,9.0^18,22]tricosa-1 (21),4,6,8,15(22),16,19-heptaen-14-one] | bioavailability [1]: 65%; AUC(0-inf) ([1]; 5 mg/kg, oral intake): 6040 ng·h/mL; Cmax ([1]; 5 mg/kg, oral intake): 2600 ng/mL; half-life ([1]; 5 mg/kg, oral intake): 2.03 h; AUC(0-inf) [1, 2]: 1850 ng·h/mL; clearance [1, 2]: 9 mL/min/kg; half-life [1, 2]: 1.79 h; IC50 (TRKC(G623R)): 14.5 nM |
| – | 0.34 nM | 1.05 nM | 11.3 nM | – | C[C@H]1Nc2ccn3ncc(c3n2)C(=O)NCCC2=Cc3cc(F)cc1c3O2 [Example 6, (3R)-6-fluoro-3-methyl-10-oxa-2,14,18,19,22-pent aazapentacyclo[14.5.2.1^8,11.0^4,9.0^19,23]tetracosa-1(2 2),4,6,8,11(24),16(23),17,20-octaen-15-one] | – |
| – | 0.32 nM | 2.05 nM | 2.65 nM | 21.1 nM | C[C@H]1Nc2ccn3ncc(c3n2)C(=O)NC[C@@H]2COc3cc(F)cc1c3O2 [Example 7, (2R,14R)-19-fluoro-2-methyl-16,22-dioxa-3,5,7,8, 12-pentaazapentacyclo[12.6.2.2^4,7.0^6,10.0^17,21]tetrac osa-1(20),4,6(10),8,17(21),18,23-heptaen-11-one] | IC50 (TRKC(G623R)): 25.3 nM |
| – | – | 18.5 nM | – | 24.6 nM | C[C@H]1Nc2ccn3ncc(c3n2)C(=O)NCC[C@]2(C)Cc3cc(F)cc1c3O2 [Example 21, (3R,11S)-6-fluoro-3,11-dimethyl-10-oxa-2,14,18,1 9,22-pentaazapentacyclo[14.5.2.1^8,11.0^4,9.0^19,23]tetra cosa-1(22),4,6,8,16(23),17,20-heptaen-15-one] | – |
| – | – | 4.83 nM | 15.3 nM | – | C[C@H]1Nc2ccn3ncc(c3n2)C(=O)NC[C@]2(C)COc3cc(F)cc1c3O2 [Example 23, (2R,14R)-19-fluoro-2,14-dimethyl-16,22-dioxa-3,5 ,7,8,12-pentaazapentacyclo[12.6.2.2^4,7.0^6,10.0^17,21]te tracosa-1(20),4,6(10),8,17(21),18,23-heptaen-11-one] | – |
